In patent US20240174618A1, “SUBSTITUTED (2-HETEROARYLOXYPHENYL)SULFONATES, SALTS THEREOF AND THEIR USE AS HERBICIDAL AGENTS” (Bayer Aktiengesellschaft, priority 2021, published 2024):

Key:
Type in all cases: in vivo
[1] = test system: Kochia scoparia (KCHSC); assay: A. Herbicidal pre-emergence efficacy, KCHSC
Method in brief: (§1)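 Pre-emergence soil-surface spray in sandy loam pots, WP/EC in water plus 0.5% additive, 600 L/ha. Visual % damage rating after about 3 weeks in greenhouse vs. untreated; 0% = control-like, 100% = dead plants. Rates up to 1280 g/ha.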

[2] = test system: Setaria viridis (SETVI); assay: A. Herbicidal pre-emergence efficacy, SETVI
Method in brief: as §1

[3] = test system: Amaranthus retroflexus (AMARE); assay: A. Herbicidal pre-emergence efficacy, AMARE
Method in brief: as §1

[4] = test system: Kochia scoparia (KCHSC); assay: B. Herbicidal post-emergence efficacy, KCHSC; conditions: for Post-emergence efficacy against KCHSC in %: rated visually after about 3 weeks; for Post-emergence efficacy against KCHSC: 1280 g/ha
Method in brief: (§2)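 First, seeds were sown in sandy loam and grown 2 to 3 weeks under controlled greenhouse conditions. Next, foliage at the one-leaf stage received the formulated compound in water with 0.5% additive (600 L/ha, 1280 g/ha or less). Finally, damage was rated visually after about 3 weeks against untreated plants.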

[5] = test system: Poa annua (POAAN); assay: B. Herbicidal post-emergence efficacy, POAAN
Method in brief: as §2

[6] = test system: Setaria viridis (SETVI); assay: B. Herbicidal post-emergence efficacy, SETVI
Method in brief: as §2

[7] = test system: Echinochloa crus-galli (ECHCG); assay: E. Herbicidal post-emergence efficacy, ECHCG
Method in brief: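 Greenhouse post-emergence spray, one-leaf stage (2–3 wk after sowing, sandy loam); WP/EC formulation, aqueous + 0.5% additive, 600 l/ha water; rates 320 g/ha or less. Visual rating ~3 wk later vs untreated; 0% = control-like, 100% = dead.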

[8] = 80 g/ha, scored visually after about 3 weeks vs untreated controls
[9] = pre-emergence, dosage 1280 g/ha

Structure (SMILES)	Pre-emergence efficacy against KCHSC [1, 8] [%]	Pre-emergence efficacy against KCHSC ([1]; pre-emergence, dosage 320 g/ha) [%]	Pre-emergence efficacy against KCHSC [1, 9] [%]	Pre-emergence efficacy against SETVI ([2]; dosage 80 g/ha) [%]	Pre-emergence efficacy against SETVI ([2]; dosage 320 g/ha) [%]	Pre-emergence efficacy against SETVI ([2]; dosage 1280 g/ha) [%]	Pre-emergence efficacy against AMARE in % ([3]; 80 g/ha) [%]	Pre-emergence efficacy against AMARE in % ([3]; 320 g/ha) [%]	Pre-emergence efficacy against AMARE in % ([3]; 1280 g/ha) [%]	Post-emergence efficacy against KCHSC in % ([4]; 80 g/ha) [%]	Post-emergence efficacy against KCHSC in % ([4]; 320 g/ha) [%]	Post-emergence efficacy against KCHSC [4] [%]	Post-emergence efficacy against POAAN ([5]; 1280 g/ha) [%]	Post-emergence efficacy against SETVI ([6]; 1280 g/ha) [%]	Post-emergence efficacy against ECHCG in % ([7]; application rate 320 g/ha) [%]	Post-emergence efficacy against POAAN ([5]; 320 g/ha) [%]	Post-emergence efficacy against SETVI ([6]; 320 g/ha) [%]	Post-emergence efficacy against ECHCG in % ([7]; application rate 80 g/ha) [%]	Post-emergence efficacy against POAAN ([5]; 80 g/ha) [%]
CCCS(=O)(=O)Oc1ccccc1Oc1ncc(Cl)cn1 [Example I-3]	100	100	100	100	100	100	100	100	100	90	90	90	90	90	90				
O=S(=O)(CCCCl)Oc1ccccc1Oc1ncc(F)cn1 [Example I-5]	100	100	100	100	100	100	100	100	100	100	100	100	100	100	100	90	90	80	
CCCCS(=O)(=O)Oc1ccccc1Oc1ncc(Cl)cn1 [Example I-6]	90	90	100	90	90	100	100	100	100	90	90	90	100	90	100			90	
CC(C)CS(=O)(=O)Oc1ccccc1Oc1ncc(Cl)cn1 [Example I-7, [2-(5-Chloropyrimidin-2-yl)oxyphenyl] 2-methylpropane-1-sulfonate]	90	100	100	100	100	100	100	100	100			90	90	90	100			80	
O=S(=O)(CCC(F)(F)F)Oc1ccccc1Oc1ncc(Cl)cn1 [Example I-8]	100	100	100	100	100	100	90	90	100	90	90	90	90	90	90		90	90	
O=S(=O)(CCCC(F)(F)F)Oc1ccccc1Oc1ncc(Cl)cn1 [Example I-10]	100	100	100	90	90	100	100	100	100	90	90	90	90	100	90		100	90	
Cc1cccc(OS(=O)(=O)CCCCl)c1Oc1ncc(Cl)cn1 [Example I-12]		90	100		100	100	100	100	100			90	90	90	90				
O=S(=O)(CCCCl)Oc1c(F)cccc1Oc1ncc(Cl)cn1 [Example I-14]	100	100	100	100	100	100	100	100	100	100	100	100	100	100	100	100	90	90	90
O=S(=O)(CCCCCl)Oc1ccccc1Oc1ncc(Cl)cn1 [Example I-15]	100	100	100	100	100	100	100	100	100	100	100	100	90	100	80	90			
O=S(=O)(CC1CC1)Oc1ccccc1Oc1ncc(Cl)cn1 [Example I-23]	90	100	100			100	90	100	100	100	100	100	100	100	100	90			90
CCCCCS(=O)(=O)Oc1ccccc1Oc1ncc(Cl)cn1 [Example I-24]			100		100	100	90	100	100	90	100	100	100	90	80	90			
CC(C)CCS(=O)(=O)Oc1ccccc1Oc1ncc(Cl)cn1 [Example I-25]	90	100	100		100	100	90	100	100	90	100	100	100	90	100	90	90		
O=S(=O)(CCC(F)(F)F)Oc1c(Cl)cccc1Oc1ncc(Br)cn1 [Example I-32]		90	100		90	100	90	90	100	100	100	100	100	100	90	100	90		90
O=S(=O)(CCCC(F)(F)F)Oc1c(Cl)cccc1Oc1ncc(Br)cn1 [Example I-34]			90	90	90	100	90	90	100	100	100	100	100	90	90	100			
